# Source: paper PMC12274739, “Differential substrate degradation by super-degron: EGFP in wild-type mouse cells, PD-1 requires CRBN humanization” (iScience, 2025)
# Several values for one entry are separate records, joined by “and”; a condition that tells them apart may be missing. Equal values may be shown once.
# How the values were obtained:
# GL-261 = GL-261 orthotopic model, growth in brain by MRI; assay type: in vivo, mouse; conditions: Pdcd1SD/SD/CrbnI391V/I391V mice, IBR oral administration
# Description: In vivo proliferation of another tumor cell line, GL-261 […], was also examined to confirm the effect of PD-1 reduction other than the MC-38 adenocarcinoma cell line.[34]
# GL-261 cells were passaged one day before inoculation and resuspended in HBSS at a concentration of 1 × 10^7 cells/mL. The mice were anesthetized by intraperitoneal injection of a combination of the three drugs described in the previous section and immobilized in a stereotactic frame (RWD Life Science, US). After a midline scalp incision, a small burr hole located 2 mm to the right and 1 mm anterior to the bregma was drilled into the skull (AP:1.0 mm, ML:-2.0 mm). The syringe needle was inserted at a depth of 3.0 mm and then raised 0.4 mm to get to a depth of 2.6 mm. 2 μL of cell (2 x10^4 cells) was injected using a 10 μL syringe (Hamilton, USA) connected to a syringe pump (KD Scientific, US; injection rate: 0.5 μL/min). After injection, the needle was left in place for an additional 5 min to avoid backflow. […]
# All the MR experiments were performed at the Medical Research Support Center, Graduate School of Medicine, Kyoto University, Japan. […] The respiratory rate and rectal temperature of the animals were continuously monitored using a dedicated system (Model 1025, MR-compartible Small Animal Monitoring & Gating System; SA Instruments, Inc., NY, USA) and software (PC-SAM V8.04; SA Instruments). […]
# SD-tagged EGFP = assay: Degradation of SD-tagged EGFP in Crbn−/− (CRBN-KO) mESCs; assay type: cell-based, mouse; conditions: IBR up to 1 μM, 24 h
# PD-1-SD = assay: Exogenous PD-1-SD degradation in mESCs; assay type: cell-based, mouse
# Experimental: The dotted lines show an isotype control without IBR. […] The dotted lines show an isotype control without IBR. […] The black lines show isotype control without IBR. […] Red lines show the boundary between positive and negative. […] (B–J) IBR or solvent (−) was added to cultured splenocytes (B–G) or mESCs (H–J). […] The concentration is 0.1 μM in the rightmost bar in each group, and the left neighbor is a step dilution of one-tenth. Intensities of anti-PD-1-FITC on CD4^+ and CD8^+ T cells were measured by flow cytometry, and the geometric means of fluorescence intensities (MFI) were calculated. The MFI of the isotype control of anti-PD-1-FITC was subtracted from each MFI of anti-PD-1-FITC. The dots indicate the results of the experiment for each of the three samples from different individuals.
# To determine whether the same phenomenon occurs in non-T cells, exogenous PD-1 degradation was examined in mESCs transfected with PD-1-SD expression vectors (Figures 6H–6J and S6E). […] We hypothesized that the degradation efficiency of membrane-localized proteins might be reduced in mouse-type CRBNs. Therefore, we expressed EGFP-SDs with membrane-localized peptides attached to their N-termini in mESCs and added IBR. The degradation efficiency of EGFP-SD with membrane-localization peptide[32] […] Therefore, Pdcd1^SD/SD/Crbn^I391V/I391V mice were used for further analyses.
# [1] = tested on: mouse PD-1-mCherry-IKZF full-length tag; conditions: Jurkat, 24 h
Compound,proliferation of GL-261 (GL-261),degradation of SD-tagged EGFP (SD-tagged EGFP),PD-1 degradation (PD-1-SD; Crbn+/+ mESCs transfected with PD-1-SD),PD-1 degradation (PD-1-SD; CrbnI391V/I391V mESCs transfected with PD-1-SD),"Bottom, mCherry (mC) ([1]; mCherry, no reagent = 1)","Bottom, PD-1 (FITC) ([1]; surface PD-1, no reagent = 1)"
"O=C1CC[C@H](N2Cc3c(OCc4ccc(CN5CCOCC5)cc4)cccc3C2=O)C(=O)N1 [IBR, iberdomide]",suppressed,did not occur,barely degraded,degraded,,
"Nc1cccc2c1C(=O)N(C1CCC(=O)NC1=O)C2=O (stereo not drawn) [POM, pomalidomide]",,,,,0.6165,0.32 and 0.3218
